Test results as given in patent publication US20250352527A1, “METHODS FOR TREATING VIRAL INFECTIONS, ORGAN INJURY, AND RELATED CONDITIONS” (Akebia Therapeutics, Inc., priority 2021, published 2025).
Entries after “also recorded” stand apart in the source; their conditions may differ.

Experiments:
[1] = tested on: IL-6; assay: Luminex cytokine levels in BAL: IL-6; details: vs vehicle disease control
[2] = Body weight change from day -2 in LPS-induced lung inflammation model; assay type: in vivo, mice; details: vs vehicle disease control; for body weight change from day -2: 6 hours post-LPS
From the text: (§1) All animals survived to study termination.
Body weight measurements were collected and the animals were euthanized for necropsy and terminal sample collection on day 0 or day 1.
The mice were weighed for randomization on study day −2 and were weighed again on day 0.

[3] = tested on: hospitalized patients with coronavirus disease 2019 (COVID-19); assay: Randomized, double-blind, placebo-controlled clinical trial for prevention and treatment of ARDS; assay type: in vivo, human; details: 900 mg once daily for 14 days
Procedure: This example describes use of 5-(3-chlorophenyl)-3-hydroxypyridine-2-carbonyl]amino}acetic acid (vadadustat) in a multicenter, randomized, double-blind, placebo-controlled Bayesian adaptive clinical for the prevention and treatment of acute respiratory distress syndrome (ARDS) in hospitalized patients with coronavirus disease 2019 (COVID-19).
Following screening, patients are randomized in a 1:1 ratio to either vadadustat 900 mg or placebo. Randomization is stratified by site, and MSOFA score at baseline (<4 and >4).
A subject may receive vadadustat (e.g., 900 mg vadadustat as 6 tablets once daily) for 14 days and without regard for meals at approximately the same time each day. Tablets can be crushed using a pill crusher and administered to an intubated patient through a nasogastric tube.
Efficacy may also be assessed according to any of the following (including any combination thereof): • 1. The proportion of patients at day 14 who are dead (8) or hospitalized, on invasive mechanical ventilation or ECMO (7) or hospitalized, on non-invasive ventilation or high flow oxygen devices (6) on the NIAID-OS. • 2. Proportions of patients with a score of 0 at 14 days on the MSOFA (Modified Sequential Organ Failure Assessment) scale:
• 3. Average MSOFA scores at day 7 and day 14. • 4. Proportion of patients who develop ARDS or experienced increased ARDS severity from baseline based on the Berlin scale. • 5. Ventilator-free survival at day 7 and day 14. • 6. Overall survival at day 7 and day 14. • 7. Proportion of patients with hypotension (MAP (Mean Arterial Pressure)<70 mm Hg or requirement for inotropes or vasopressors to maintain blood pressure) at day 7 and day 14. • 8. Proportion of patients with acute kidney injury at day 7 and day 14. • 9. Time to hospital discharge.

[4] = tested on: TNFα; assay: Luminex cytokine levels in BAL: TNFα; assay type: in vivo, mice; details: vs vehicle disease control
From the text: as §1
• 1. […] Seal the plate with a plate sealer.

[5] = 100 mg/kg PO QD days -2 to 0 (final dose 1 h pre-LPS), 6 hours post-LPS
[6] = 100 mg/kg PO QD days -2 to 0 (final dose 7 h post-LPS), 24 hours post-LPS
[7] = 100 mg/kg PO single dose 1 h post-LPS, 8 hours post-LPS
[8] = 300 mg/kg PO single dose 1 h post-LPS, 8 hours post-LPS
[9] = day 7 and day 14, compared to placebo

## O=C(O)CNC(=O)c1ncc(-c2cccc(Cl)c2)cc1O [Compound 1, {[5-(3-chlorophenyl)-3-hydroxypyridine-2-carbonyl]amino}acetic acid]
[1]; [5]
  IL-6 levels in BAL fluids: decrease in IL-6 levels at 6 hours post-LPS compared to vehicle disease control, though not statistically significant; also recorded: did not differ statistically
[1]; [6]
  IL-6 levels in BAL fluids: Significantly increased; also recorded: significant increases
[1]; [7]
  IL-6 levels in BAL fluids: decrease in IL-6 and TNFα levels at 8 hours post-LPS compared to vehicle disease control, though not statistically significant; also recorded: no significant differences
[1]; 300 mg/kg PO QD days -2 to 0 (final dose 1 h pre-LPS), 6 hours post-LPS
  IL-6 levels in BAL fluids: decrease in IL-6 levels at 6 hours post-LPS compared to vehicle disease control, though not statistically significant
[1]; [8]
  IL-6 levels in BAL fluids: decrease in IL-6 and TNFα levels at 8 hours post-LPS compared to vehicle disease control, though not statistically significant; also recorded: no significant differences
[2]; 100 mg/kg PO QD days -2 to 0 (final dose 7 h post-LPS, 4 doses), 24 hours post-LPS
  absolute body weight change: did not differ statistically
[2]; [7]
  absolute body weight change: no significant differences
[2]; 300 mg/kg PO QD days -2 to 0 (final dose 1 h pre-LPS)
  body weight change from day -2: Significantly increased body weight loss; also recorded: statistically significant absolute weight loss
[2]; 300 mg/kg PO QD days -2 to 0 (final dose 7 h post-LPS, 4 doses), 24 hours post-LPS
  absolute body weight change: did not differ statistically
[2]; [8]
  absolute body weight change: no significant differences
[3]; at 14 days, compared to placebo
  proportions of patients with a score of 0 on the MSOFA: an increase
[3]; compared to placebo
  proportion of patients who develop ARDS or experienced increased ARDS severity from baseline based on the Berlin scale: a lower or a reduction
[3]; [9]
  average MSOFA scores: a lower or a reduction
  overall survival: a greater or an increase
  proportion of patients with hypotension (MAP <70 mm Hg or requirement for inotropes or vasopressors): a lower or a reduction
  ventilator-free survival: a greater or an increase
[3]; day 7 and day 14, versus placebo
  proportion of patients with acute kidney injury: a lower or a reduction
[3]; day 14, compared to placebo
  proportion of patients who are dead (8), on invasive mechanical ventilation or ECMO (7) or on non-invasive ventilation or high flow oxygen devices (6) on the NIAID-OS: a lower or a reduction
[3]; versus placebo
  time to hospital discharge: a shorter or a reduction
[4]; [5]
  TNFα levels in BAL fluids: did not differ statistically
[4]; [6]
  TNFα levels in BAL fluids: Significantly increased; also recorded: significant increases
[4]; [7]
  TNFα levels in BAL fluids: decrease in IL-6 and TNFα levels at 8 hours post-LPS compared to vehicle disease control, though not statistically significant; also recorded: no significant differences
[4]; [8]
  TNFα levels in BAL fluids: decrease in IL-6 and TNFα levels at 8 hours post-LPS compared to vehicle disease control, though not statistically significant; also recorded: no significant differences

## C[C@@H]1C[C@H]2[C@@H]3CCC4=CC(=O)C=C[C@]4(C)[C@@]3(F)[C@@H](O)C[C@]2(C)[C@@]1(O)C(=O)CO [dexamethasone, reference compound]
[2]; 3 mg/kg PO 1x 1 h pre-LPS
  body weight change from day -2: did not differ statistically
